Like-named read-outs stand apart in the source and are kept apart here. *1 amine or outer side, *2 acyl side, *3 side chain or, on linkers, in order; H or OH if unused. Where a SMILES comes first, the peptide text is derived from it. Bridges are numbered along the chain shown (N, C = ends). [ ]: non-standard residue; d: D form. The star is where a group is joined. TATA = O=C(CC[*:1])N1CN(C(=O)CC[*:2])CN(C(=O)CC[*:3])C1; NOTA = O=C(O)CN1CCN(CC(=O)O)CCN(CC(=O)*)CC1; Hyp = O=C(O)[C@@H]1C[C@@H](O)CN1; hArg = N=C(N)NCCCC[C@H](N)C(=O)O; PEG2 = NCCOCCOCCC(=O)O; Sar = CNCC(=O)O
Assays:
BxPC3 tumor xenografts = assay: Ex vivo biodistribution; type: in vivo, NSG mice; settings: BxPC3 xenograft; 60 min p.i.; mean ± SEM (n = 4 or 5)
Method: (§1) Animal studies were performed under Johns Hopkins University Animal Care and Use Committee (ACUC)-approved protocol (Principal investigator: Sridhar Nimmagadda, Ph.D. and Protocol number M021M175). Male and Female NSG mice (5-6 weeks old) were purchased from JHU immunocompromised core and used to establish xenografts by administering cells subcutaneously (top right flank, unless otherwise noted) to form various tumor models within 3-4 weeks. Following cell numbers were used: Panc1, AsPC1, BxPC3 (1 M), Hs766T and SU8686 (2 M), CFPAC and Panc1005 (5 M). Imaging or biodistribution studies (n = 3-5) were conducted on mice with tumor volumes of 100-200 mm^3. The Panc1 orthotopic tumor model was established by surgically implanting a 3-5 mm^3 section of Panc1 tumor xenograft directly onto the pancreas. The implanted tumors were allowed to grow and were ready for imaging after 10 days of implantation.
(§2) Mice with 100-200 mm^3 tumor volume were used for ex vivo biodistribution studies. For radiotracer pharmacokinetics and dosimetry studies, mice with Panc1 tumor xenograft received ~80 µCi (2.96 MBq) [^68Ga]AJ201 and were sacrificed at pre-determined time points (5, 30, 60, 90 and 120 min). All other mice were injected with ~50 µCi (1.85 MBq; 0.2 to 0.5 nmol) Ga-68 labeled radiotracer and were sacrificed at 60 min. The selected tissues were collected, weighed, counted, and their %ID/g values calculated for biodistribution analysis. For pharmacokinetics and dosimetry studies, selected tissues included blood, muscle, tumor, thymus, heart, lung, liver, pancreas, stomach, small intestine, large intestine, spleen, adrenals, kidney, bladder, femur, brain and tumor xenografts. For other studies, selected tissues were blood, muscle, tumor, heart, lung, liver, pancreas, small intestine, spleen, kidney.

Ex vivo biodistribution = assay: Ex vivo biodistribution; design: species or system NSG mice; settings: both sexes, NSG, mouse, in vivo, iv, 80 uCi, total radioactivity, mean ± SEM (n = 4 or 5); for tissue uptake at 5 min / tissue to tissue ratio at 5 min: 5 min p.i.; for tissue uptake at 5 min / tissue uptake at 0.5 h / tissue uptake at 1 h / tissue uptake at 1.5 h / tissue uptake at 2 h: i.v.; for tissue to tissue ratio at 5 min / tissue to tissue ratio at 0.5 h / tissue to tissue ratio at 1 h / tissue to tissue ratio at 1.5 h: dimensionless; for tissue uptake at 0.5 h / tissue to tissue ratio at 0.5 h: 30 min p.i.; for tissue uptake at 1 h / tissue to tissue ratio at 1 h: 60 min p.i.; for tissue uptake at 1.5 h / tissue to tissue ratio at 1.5 h: 90 min p.i.; for tissue uptake at 2 h: 120 min p.i.
Method: as §1, §2

[1] = read-out: Stomach with contents uptake

For CC(C)C[C@@H]1NC(=O)[C@@H]2CSCCC(=O)N3CN(CN(C3)C(=O)CCSC[C@H](NC(=O)[C@H](CC(=O)O)NC(=O)[C@H](CCCCNC(=N)N)NC(=O)[C@H](C)NC(=O)CNC(=O)CN(C)C(=O)CN(C)C(=O)CN(C)C(=O)[C@H](CCCNC(=N)N)NC(=O)CNC(=O)CCOCCOCCNC(=O)CN3CCN(CC(=O)O)CCN(CC(=O)O)CC3)C(=O)N3C[C@H](O)C[C@H]3C(=O)N[C@@H](CC(C)C)C(=O)N[C@@H](C(C)C)C(=O)N[C@@H](CC(N)=O)C(=O)N3CCC[C@H]3C(=O)N[C@@H](CC(C)C)C(=O)N2)C(=O)CCSC[C@@H](C(N)=O)NC(=O)[C@H](CCCCNC(=N)N)NC(=O)[C@H](Cc2c[nH]c3ccccc23)NC(=O)[C@@H](CC(=O)O)NC(=O)[C@@H]2CCCN2C(=O)[C@H](Cc2c[nH]cn2)NC1=O [[^68Ga]AJ201, metal not drawn] ({NOTA-PEG2}-GR[Sar][Sar][Sar]GA[hArg]DC[Hyp]LVNPLCLHP[dD]W[hArg]C-NH2; linker 10-17-24 via TATA), the Heart uptake (BxPC3 tumor xenografts) was 0.29 ± 0.01 %ID/g, the tissue uptake at 5 min (Ex vivo biodistribution; read-out: Blood uptake) was 8.2 ± 0.92 %ID/g and the tissue uptake at 5 min (Ex vivo biodistribution; read-out: Brain uptake) was 0.4 ± 0.08 %ID/g. It also gave a tissue uptake at 5 min (Ex vivo biodistribution; read-out: Heart uptake) of 4.19 ± 1.06 %ID/g, a tissue uptake at 5 min (Ex vivo biodistribution; read-out: Liver uptake) of 4.25 ± 0.99 %ID/g and a tissue uptake at 5 min (Ex vivo biodistribution; read-out: Lung uptake) of 8.24 ± 0.93 %ID/g. It also gave a tissue uptake at 5 min (Ex vivo biodistribution; read-out: Muscle uptake) of 1.79 ± 0.24 %ID/g, a tissue uptake at 5 min (Ex vivo biodistribution; read-out: Pancreas uptake) of 3.24 ± 0.08 %ID/g and a tissue uptake at 5 min (Ex vivo biodistribution; [1]) of 1.8 ± 0.39 %ID/g. It also gave a tissue uptake at 5 min (Ex vivo biodistribution; read-out: Thymus uptake) of 4.61 ± 0.51 %ID/g, a tissue uptake at 5 min (Ex vivo biodistribution; read-out: Tumor uptake) of 7.06 ± 0.48 %ID/g and a tissue to tissue ratio at 5 min (Ex vivo biodistribution; read-out: Tumor/Muscle ratio) of 4.12 ± 0.66. It also gave a tissue to tissue ratio at 5 min (Ex vivo biodistribution; read-out: Tumor/Pancreas ratio) of 2.18 ± 0.14, a tissue to tissue ratio at 5 min (Ex vivo biodistribution; read-out: Tumor/blood ratio) of 0.89 ± 0.14 and a tissue uptake at 0.5 h (Ex vivo biodistribution; read-out: Blood uptake) of 1.61 ± 0.18 %ID/g. For the same compound, the tissue uptake at 0.5 h (Ex vivo biodistribution; read-out: Brain uptake) was 0.09 ± 0.01 %ID/g, the tissue uptake at 0.5 h (Ex vivo biodistribution; read-out: Heart uptake) was 0.97 ± 0.15 %ID/g and the tissue uptake at 0.5 h (Ex vivo biodistribution; read-out: Liver uptake) was 1.15 ± 0.19 %ID/g. For the same compound, the tissue uptake at 0.5 h (Ex vivo biodistribution; read-out: Lung uptake) was 2.29 ± 0.26 %ID/g, the tissue uptake at 0.5 h (Ex vivo biodistribution; read-out: Muscle uptake) was 1.11 ± 0.34 %ID/g and the tissue uptake at 0.5 h (Ex vivo biodistribution; read-out: Pancreas uptake) was 0.74 ± 0.1 %ID/g. The tissue uptake at 0.5 h (Ex vivo biodistribution; [1]) was 0.77 ± 0.31 %ID/g, the tissue uptake at 0.5 h (Ex vivo biodistribution; read-out: Thymus uptake) was 2.35 ± 0.66 %ID/g and the tissue uptake at 0.5 h (Ex vivo biodistribution; read-out: Tumor uptake) was 6.96 ± 0.31 %ID/g. It also gave a tissue to tissue ratio at 0.5 h (Ex vivo biodistribution; read-out: Tumor/Muscle ratio) of 6.4 ± 3.6, a tissue to tissue ratio at 0.5 h (Ex vivo biodistribution; read-out: Tumor/Pancreas ratio) of 7.08 ± 2.57 and a tissue to tissue ratio at 0.5 h (Ex vivo biodistribution; read-out: Tumor/blood ratio) of 3.31 ± 1.17. For the same compound, the tissue uptake at 1 h (Ex vivo biodistribution; read-out: Blood uptake) was 0.49 ± 0.07 %ID/g, the tissue uptake at 1 h (Ex vivo biodistribution; read-out: Brain uptake) was 0.04 ± 0.01 %ID/g and the tissue uptake at 1 h (Ex vivo biodistribution; read-out: Heart uptake) was 0.29 ± 0.08 %ID/g. For the same compound, the tissue uptake at 1 h (Ex vivo biodistribution; read-out: Liver uptake) was 0.32 ± 0.02 %ID/g, the tissue uptake at 1 h (Ex vivo biodistribution; read-out: Lung uptake) was 0.65 ± 0.04 %ID/g and the tissue uptake at 1 h (Ex vivo biodistribution; read-out: Muscle uptake) was 0.21 ± 0.05 %ID/g. The tissue uptake at 1 h (Ex vivo biodistribution; read-out: Pancreas uptake) was 0.16 ± 0.01 %ID/g, the tissue uptake at 1 h (Ex vivo biodistribution; [1]) was 0.15 ± 0.03 %ID/g and the tissue uptake at 1 h (Ex vivo biodistribution; read-out: Tumor uptake) was 4.68 ± 0.25 %ID/g. It also gave a tissue to tissue ratio at 1 h (Ex vivo biodistribution; read-out: Tumor/Muscle ratio) of 25.8 ± 6.71, a tissue to tissue ratio at 1 h (Ex vivo biodistribution; read-out: Tumor/Pancreas ratio) of 28.8 ± 0.97 and a tissue to tissue ratio at 1 h (Ex vivo biodistribution; read-out: Tumor/blood ratio) of 9.86 ± 1.1. For the same compound, the tissue uptake at 1.5 h (Ex vivo biodistribution; read-out: Blood uptake) was 1.18 ± 0.27 %ID/g, the tissue uptake at 1.5 h (Ex vivo biodistribution; read-out: Brain uptake) was 0.05 ± 0.01 %ID/g and the tissue uptake at 1.5 h (Ex vivo biodistribution; read-out: Femur uptake) was 0.68 ± 0.11 %ID/g. It also gave a tissue uptake at 1.5 h (Ex vivo biodistribution; read-out: Heart uptake) of 0.76 ± 0.13 %ID/g, a tissue uptake at 1.5 h (Ex vivo biodistribution; read-out: Liver uptake) of 0.9 ± 0.17 %ID/g and a tissue uptake at 1.5 h (Ex vivo biodistribution; read-out: Lung uptake) of 1.4 ± 0.27 %ID/g. The tissue uptake at 1.5 h (Ex vivo biodistribution; read-out: Muscle uptake) was 0.37 ± 0.11 %ID/g, the tissue uptake at 1.5 h (Ex vivo biodistribution; read-out: Pancreas uptake) was 0.57 ± 0.15 %ID/g and the tissue uptake at 1.5 h (Ex vivo biodistribution; [1]) was 0.27 ± 0.06 %ID/g. For the same compound, the tissue uptake at 1.5 h (Ex vivo biodistribution; read-out: Thymus uptake) was 1.64 ± 0.42 %ID/g, the tissue uptake at 1.5 h (Ex vivo biodistribution; read-out: Tumor uptake) was 6.04 ± 1.46 %ID/g and the tissue to tissue ratio at 1.5 h (Ex vivo biodistribution; read-out: Tumor/Muscle ratio) was 17 ± 2.11. The tissue to tissue ratio at 1.5 h (Ex vivo biodistribution; read-out: Tumor/Pancreas ratio) was 10.7 ± 0.2, the tissue to tissue ratio at 1.5 h (Ex vivo biodistribution; read-out: Tumor/blood ratio) was 5.43 ± 1.32 and the tissue uptake at 2 h (Ex vivo biodistribution; read-out: Blood uptake) was 0.9 ± 0.29 %ID/g. For the same compound, the tissue uptake at 2 h (Ex vivo biodistribution; read-out: Brain uptake) was 0.05 ± 0.01 %ID/g, the tissue uptake at 2 h (Ex vivo biodistribution; read-out: Femur uptake) was 0.83 ± 0.33 %ID/g and the tissue uptake at 2 h (Ex vivo biodistribution; read-out: Heart uptake) was 0.68 ± 0.17 %ID/g. It also gave a tissue uptake at 2 h (Ex vivo biodistribution; read-out: Liver uptake) of 0.84 ± 0.13 %ID/g, a tissue uptake at 2 h (Ex vivo biodistribution; read-out: Lung uptake) of 1.15 ± 0.22 %ID/g and a tissue uptake at 2 h (Ex vivo biodistribution; read-out: Muscle uptake) of 0.26 ± 0.04 %ID/g.
